In PubChem BioAssay AID222 (DTP/NCI, 2004):
Values joined by “and” are separate entries in the source; they are usually repeats but may differ in a detail not shown here. Equal entries are not always repeated. Inconclusive results and toxic doses are left out. Rule for the calls: active = survival T/C of 150% or more; inactive = T/C below 125% in these data.

System: C57BL/6 mice, intracerebral ependymoblastoma, median survival T/C
Test: NCI In Vivo Anticancer Drug Screen. Data for tumor model Ependymoblastoma (intracerebral) in C57BL/6 mice
Settings: endpoint: median survival time, higher = longer survival
Method: The antitumor activity of compounds was measured in mice bearing transplantable tumors. Survival or tumor size were measured and the results are expressed as the measurement made in the treated group (T) divided by the measurement made in the vehicle treated control group (C). The tumor model used in this assay is Ependymoblastoma (intracerebral) in C57BL/6 mice

Measured: T/C

OC(CBr)C(O)C(O)C(O)CBr (configuration not stated)
inactive: dose: 8.0 mg/kg/injection, schedule: Q01DX005 (ip), vehicle: saline 101 % of control | dose: 12.0 mg/kg/injection, schedule: Q01DX005 (ip), vehicle: saline 89 % of control | dose: 18.0 mg/kg/injection, schedule: Q01DX005 (ip), vehicle: saline 100 % of control | dose: 27.0 mg/kg/injection, schedule: Q01DX005 (ip), vehicle: saline 95 % of control | dose: 32.0 mg/kg/injection, schedule: Q01DX001 (ip), vehicle: Klucel (hydroxypropylcellulose) (HPC) 108 % of control | dose: 32.0 mg/kg/injection, schedule: Q01DX001 (oral), vehicle: Klucel (hydroxypropylcellulose) (HPC) 96 % of control | dose: 32.0 mg/kg/injection, schedule: Q01DX005 (oral), vehicle: Klucel (hydroxypropylcellulose) (HPC) 97 % of control | dose: 50.0 mg/kg/injection, schedule: Q01DX005 (ip), vehicle: saline 107 % of control | dose: 60.0 mg/kg/injection, schedule: Q01DX005 (ip), vehicle: saline 116 % of control | dose: 64.0 mg/kg/injection, schedule: Q01DX001 (ip), vehicle: Klucel (hydroxypropylcellulose) (HPC) 111 % of control | dose: 64.0 mg/kg/injection, schedule: Q01DX001 (oral), vehicle: Klucel (hydroxypropylcellulose) (HPC) 99 % of control | dose: 64.0 mg/kg/injection, schedule: Q01DX005 (oral), vehicle: Klucel (hydroxypropylcellulose) (HPC) 102 % of control | dose: 100.0 mg/kg/injection, schedule: Q01DX001 (ip), vehicle: Klucel (hydroxypropylcellulose) (HPC) 103 % of control | dose: 100.0 mg/kg/injection, schedule: Q01DX005 (ip), vehicle: saline 92 % of control and 120 % of control | dose: 100.0 mg/kg/injection, schedule: Q#A X002 (ip), vehicle: Klucel (hydroxypropylcellulose) (HPC) 102 % of control | dose: 128.0 mg/kg/injection, schedule: Q01DX001 (ip), vehicle: Klucel (hydroxypropylcellulose) (HPC) 109 % of control | dose: 128.0 mg/kg/injection, schedule: Q01DX001 (oral), vehicle: Klucel (hydroxypropylcellulose) (HPC) 100 % of control | dose: 200.0 mg/kg/injection, schedule: Q01DX001 (ip), vehicle: Klucel (hydroxypropylcellulose) (HPC) 102 % of control and 112 % of control and 115 % of control | dose: 200.0 mg/kg/injection, schedule: Q01DX005 (ip), vehicle: saline 96 % of control and 107 % of control | dose: 200.0 mg/kg/injection, schedule: Q#A X002 (ip), vehicle: Klucel (hydroxypropylcellulose) (HPC) 102 % of control and 106 % of control | dose: 256.0 mg/kg/injection, schedule: Q01DX001 (ip), vehicle: Klucel (hydroxypropylcellulose) (HPC) 122 % of control | dose: 256.0 mg/kg/injection, schedule: Q01DX001 (oral), vehicle: Klucel (hydroxypropylcellulose) (HPC) 101 % of control | dose: 400.0 mg/kg/injection, schedule: Q01DX001 (ip), vehicle: Klucel (hydroxypropylcellulose) (HPC) 105 % of control and 106 % of control | dose: 400.0 mg/kg/injection, schedule: Q#A X002 (ip), vehicle: Klucel (hydroxypropylcellulose) (HPC) 111 % of control | dose: 512.0 mg/kg/injection, schedule: Q01DX001 (ip), vehicle: Klucel (hydroxypropylcellulose) (HPC) 96 % of control | dose: 512.0 mg/kg/injection, schedule: Q01DX001 (oral), vehicle: Klucel (hydroxypropylcellulose) (HPC) 100 % of control | dose: 1024.0 mg/kg/injection, schedule: Q01DX001 (ip), vehicle: Klucel (hydroxypropylcellulose) (HPC) 96 % of control | dose: 1024.0 mg/kg/injection, schedule: Q01DX001 (oral), vehicle: Klucel (hydroxypropylcellulose) (HPC) 100 % of control

COc1cc(C[C@H]2c3cc(OC)c(OC)cc3CCN2C)c(Oc2cc3c(cc2OC)-c2c(OC)c(OC)cc4c2[C@H](C3)N(C)CC4)cc1OC
inactive: dose: 12.5 mg/kg/injection, schedule: Q01DX005 (ip), vehicle: saline with Tween-80 97 % of control | dose: 25.0 mg/kg/injection, schedule: Q01DX005 (ip), vehicle: saline with Tween-80 92 % of control | dose: 50.0 mg/kg/injection, schedule: Q01DX005 (ip), vehicle: saline with Tween-80 100 % of control | dose: 100.0 mg/kg/injection, schedule: Q01DX005 (ip), vehicle: saline with Tween-80 93 % of control

COC(=O)[C@@]12OC[C@]34[C@H]([C@@H](O)[C@@H]1O)[C@@]1(C)CC(=O)C(O)=C(C)[C@@H]1C[C@H]3OC(=O)[C@H](OC(=O)/C=C(\C)C(C)C)[C@@H]24
inactive: dose: 0.03 mg/kg/injection, schedule: Q01DX005 (ip), vehicle: Klucel (hydroxypropylcellulose) (HPC) 92 % of control and 110 % of control | dose: 0.06 mg/kg/injection, schedule: Q01DX005 (ip), vehicle: Klucel (hydroxypropylcellulose) (HPC) 109 % of control and 116 % of control | dose: 0.12 mg/kg/injection, schedule: Q01DX005 (ip), vehicle: Klucel (hydroxypropylcellulose) (HPC) 101 % of control and 107 % of control | dose: 0.25 mg/kg/injection, schedule: Q01DX005 (ip), vehicle: Klucel (hydroxypropylcellulose) (HPC) 104 % of control and 109 % of control | dose: 0.5 mg/kg/injection, schedule: Q01DX005 (ip), vehicle: Klucel (hydroxypropylcellulose) (HPC) 93 % of control and 117 % of control | dose: 1.0 mg/kg/injection, schedule: Q01DX005 (ip), vehicle: Klucel (hydroxypropylcellulose) (HPC) 95 % of control | dose: 31.2 micrograms/kg/injection, schedule: Q01DX005 (ip), vehicle: saline + alcohol 86 % of control | dose: 62.5 micrograms/kg/injection, schedule: Q01DX005 (ip), vehicle: saline + alcohol 99 % of control | dose: 125.0 micrograms/kg/injection, schedule: Q01DX005 (ip), vehicle: saline + alcohol 94 % of control | dose: 250.0 micrograms/kg/injection, schedule: Q01DX005 (ip), vehicle: saline + alcohol 108 % of control | dose: 500.0 micrograms/kg/injection, schedule: Q01DX005 (ip), vehicle: saline + alcohol 87 % of control | dose: 1000.0 micrograms/kg/injection, schedule: Q01DX005 (ip), vehicle: saline + alcohol 99 % of control

Nc1ccc(C(=O)O)c(O)c1
inactive: dose: 67.5 mg/kg/injection, schedule: Q01DX005 (ip), vehicle: saline with Tween-80 103 % of control | dose: 135.0 mg/kg/injection, schedule: Q01DX005 (ip), vehicle: saline with Tween-80 94 % of control | dose: 270.0 mg/kg/injection, schedule: Q01DX005 (ip), vehicle: saline with Tween-80 86 % of control

COc1cc2c(c(OC)c1OC)-c1ccc(OC)c(=O)cc1[C@@H](NC(C)=O)CC2
inactive: dose: 0.05 mg/kg/injection, schedule: Q01DX005 (ip), vehicle: saline 104 % of control | dose: 0.1 mg/kg/injection, schedule: Q01DX005 (ip), vehicle: saline 98 % of control | dose: 0.2 mg/kg/injection, schedule: Q01DX005 (ip), vehicle: saline 108 % of control | dose: 0.4 mg/kg/injection, schedule: Q01DX005 (ip), vehicle: saline 90 % of control | dose: 0.8 mg/kg/injection, schedule: Q01DX005 (ip), vehicle: saline 103 % of control

F
inactive: dose: 16.0 mg/kg/injection, schedule: Q01DX005 (ip), vehicle: saline 98 % of control | dose: 32.0 mg/kg/injection, schedule: Q01DX005 (ip), vehicle: saline 96 % of control

O=c1ccn(C2OC(CO)C(O)C2O)c(=O)[nH]1 (configuration not stated)
inactive: dose: 64.0 mg/kg/injection, schedule: Q01DX005 (ip), vehicle: saline 93 % of control | dose: 128.0 mg/kg/injection, schedule: Q01DX005 (ip), vehicle: saline 89 % of control and 100 % of control | dose: 256.0 mg/kg/injection, schedule: Q01DX005 (ip), vehicle: saline 102 % of control and 109 % of control | dose: 512.0 mg/kg/injection, schedule: Q01DX005 (ip), vehicle: saline 96 % of control and 108 % of control

Nc1ccnc(=O)[nH]1
inactive: dose: 64.0 mg/kg/injection, schedule: Q01DX005 (ip), vehicle: saline with Tween-80 95 % of control | dose: 128.0 mg/kg/injection, schedule: Q01DX005 (ip), vehicle: saline with Tween-80 90 % of control | dose: 256.0 mg/kg/injection, schedule: Q01DX005 (ip), vehicle: saline with Tween-80 104 % of control | dose: 512.0 mg/kg/injection, schedule: Q01DX005 (ip), vehicle: saline with Tween-80 87 % of control | dose: 1024.0 mg/kg/injection, schedule: Q01DX005 (ip), vehicle: saline with Tween-80 107 % of control

c1ccc([C@H]2CN3CCSC3=N2)cc1
inactive: dose: 5.0 mg/kg/injection, schedule: Q01DX005 (ip), vehicle: saline 103 % of control | dose: 5.0 mg/kg/injection, schedule: Q01DX009 (ip), vehicle: saline 99 % of control | dose: 10.0 mg/kg/injection, schedule: Q01DX005 (ip), vehicle: saline 96 % of control | dose: 10.0 mg/kg/injection, schedule: Q01DX009 (ip), vehicle: saline 113 % of control | dose: 20.0 mg/kg/injection, schedule: Q01DX005 (ip), vehicle: saline 101 % of control | dose: 20.0 mg/kg/injection, schedule: Q01DX009 (ip), vehicle: saline 107 % of control | dose: 40.0 mg/kg/injection, schedule: Q01DX005 (ip), vehicle: saline 101 % of control

Nc1nc(=S)c2ncn(C3OC(COC(=O)c4ccc(Cl)cc4)C(OC(=O)c4ccc(Cl)cc4)C3OC(=O)c3ccc(Cl)cc3)c2[nH]1 (configuration not stated)
inactive: dose: 18.75 mg/kg/injection, schedule: Q01DX005 (ip), vehicle: Klucel (hydroxypropylcellulose) (HPC) 96 % of control | dose: 37.5 mg/kg/injection, schedule: Q01DX005 (ip), vehicle: Klucel (hydroxypropylcellulose) (HPC) 87 % of control
